Each structure is given as a SMILES string.

The target in the test is T1, PDE4B (human recombinant) (Homo sapiens, UniProt Q07343).
T1 construct: made in house
T1 sequence (Q07343 1-564 isoform Q07343-2): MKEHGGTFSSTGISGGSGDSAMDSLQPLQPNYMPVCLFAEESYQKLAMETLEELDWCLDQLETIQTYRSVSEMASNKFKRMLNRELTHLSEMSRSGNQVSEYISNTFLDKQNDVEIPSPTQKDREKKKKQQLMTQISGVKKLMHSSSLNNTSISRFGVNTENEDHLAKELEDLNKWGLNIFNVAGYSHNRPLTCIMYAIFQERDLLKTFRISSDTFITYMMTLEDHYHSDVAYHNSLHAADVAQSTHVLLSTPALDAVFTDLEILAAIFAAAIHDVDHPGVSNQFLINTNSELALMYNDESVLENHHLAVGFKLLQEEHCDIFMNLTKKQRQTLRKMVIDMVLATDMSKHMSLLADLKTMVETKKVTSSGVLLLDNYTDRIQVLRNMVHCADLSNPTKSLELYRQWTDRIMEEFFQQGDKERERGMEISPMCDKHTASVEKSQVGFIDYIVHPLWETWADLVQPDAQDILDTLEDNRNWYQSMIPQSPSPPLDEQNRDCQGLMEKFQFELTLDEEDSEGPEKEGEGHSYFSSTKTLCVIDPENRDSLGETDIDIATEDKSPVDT
The test is described as follows: Inhibition of PDE4B activity: radioactive SPA or IMAP Fluorescence Polarisation (FP) assay. The test is classed as biochemical. The conditions noted are these: PDE4B inhibitory activity, one reading or average of ca. 2-6 readings, read-out: PDE4B pIC50 (± about 0.5) (converted). The text has this: Human recombinant PDE4B, in particular the 2B splice variant thereof (HSPDE4B2B), is disclosed in WO 94/20079 and also M. M. McLaughlin et al., “A low Km, rolipram-sensitive, cAMP-specific phosphodiesterase from human brain: cloning and expression of cDNA, biochemical characterisation of recombinant protein, and tissue distribution of mRNA”, J. Biol. Chem., 1993, 268, 6470-6476. For example, in Example 1 of WO 94/20079, human recombinant PDE4B is described as being expressed in the PDE-deficient yeast Saccharomyces cerevisiae strain GL62, e.g. after induction by addition of 150 uM CuSO4, and 100,000×g supernatant fractions of yeast cell lysates are described for use in the harvesting of PDE4B enzyme.
The ability of compounds to inhibit catalytic activity at PDE4B or 4D (human recombinant), PDE3 (from bovine aorta), PDE5 (human recombinant) or PDE6 (from bovine retina) was determined by Scintillation Proximity Assay (SPA) in 96-well format. Test compounds (preferably as a solution in DMSO, e.g. 0.5 to 1 microlitre (ul) volume) were preincubated at ambient temperature (room temperature, e.g. 19-23° C.) in Wallac Isoplates (code 1450-514) with PDE enzyme in 50 mM Tris-HCl buffer pH 7.5, 8.3 mM MgCl2, 1.7 mM EGTA, 0.05% (w/v) bovine serum albumin for 10-30 minutes (usually 30 minutes). The enzyme concentration was adjusted so that no more than 20% hydrolysis of the substrate defined below occurred in control wells without compound, during the incubation. For the PDE3, PDE4B and PDE4D assays, [5′,8-^3H]Adenosine 3′,5′-cyclic phosphate (Amersham Pharmacia Biotech, code TRK.559; or Amersham Biosciences UK Ltd, Pollards Wood, Chalfont St Giles, Buckinghamshire HP8 4SP, UK) was added to give 0.05 uCi per well and ˜10 nM final concentration. For the PDE5 and PDE6 assays, [8-^3H]Guanosine 3′,5′-cyclic phosphate (Amersham Pharmacia Biotech, code TRK.392) was added to give 0.05 uCi per well and ˜36 nM final concentration. Plates, e.g. containing approx. 100 ul volume of assay mixture, were mixed on an orbital shaker for 5 minutes and incubated at ambient temperature for 1 hour. Phosphodiesterase SPA beads (Amersham Pharmacia Biotech, code RPNQ 0150) were added ([…] per well) to terminate the assay. Plates were sealed and shaken and allowed to stand at ambient temperature for 35 minutes to 1 hour (preferably 35 minutes) to allow the beads to settle. Bound radioactive product was measured using a WALLAC TRILUX 1450 Microbeta scintillation counter. For inhibition curves, 10 concentrations (1.5 nM-30 uM) of each compound were assayed. Curves were analysed using ActivityBase and XLfit (ID. Business Solutions Limited, 2 Ocean Court, Surrey Research Park, Guildford, Surrey GU2 7QB, United Kindgom) Results were expressed as pIC50 values.
The ability of compounds to inhibit catalytic activity at PDE4B (human recombinant) or PDE4D (human recombinant) was determined by IMAP Fluorescence Polarisation ([…]) assay (IMAP Explorer kit, available from Molecular Devices Corporation, Sunnydale, Calif., USA; Molecular Devices code: R^8062) in 384-well format. The IMAP FP assay is able to measure PDE activity in an homogenous, non-radioactive assay format. The FP assay uses the ability of immobilised trivalent metal cations, coated onto nanoparticles (tiny beads), to bind the phosphate group of Fl-AMP that is produced on the hydrolysis of fluorescein-labelled (Fl) cyclic adenosine mono-phosphate (Fl-cAMP) to the non-cyclic Fl-AMP form. […] Binding of Fl-AMP product to the beads (coated with the immobilised trivalent cations) slows the rotation of the bound Fl-AMP and leads to an increase in the fluorescence polarisation ratio of parallel to perpendicular light. Inhibition of the PDE reduces/inhibits this signal increase. […]
On the technique in general: In fluorescence polarisation assays a small probe gives low polarisation when free and higher when bound to something large.
For `CCOC(=O)c1cnc2c(cnn2CC)c1NC1CCSC1` (racemic) [Example 11, Ethyl 1-ethyl-4-(tetrahydrothien-3-ylamino)-1H-pyrazolo[3,4-b]pyridine-5-carboxylate], the IC50 was 39.8 nM.

For the compound `CCOC(=O)c1cnc2c(cnn2CC)c1NC1CCCC1` [Example 1, Ethyl 4-(cyolopentylamino)-1-ethyl-1H-pyrazolo[3,4-b]pyridine-5-carboxylate], the IC50 is 12.6 to 100 nM.

On to `CCOC(=O)c1cnc2c(cnn2CC)c1NC1CCCCC1` [Example 2, Ethyl 4-(cyclohexylamino)-1-ethyl-1H-pyrazolo[3,4-b]pyridine-5-carboxylate], for which the IC50 was 10 nM.

As for `CCOC(=O)c1cnc2c(cnn2CC)c1NC1CCOCC1` [Example 3, Ethyl 1-ethyl-4-(tetrahydro-2H-pyran-4-ylamino)-1H-pyrazolo[3,4-b]pyridine-5-carboxylate], the IC50 is 15.8 nM.

Consider `CCOC(=O)c1cnc2c(cnn2C)c1NC1CCCC1` [Example 6], for which the IC50 is 251 nM.

As for `CCn1ncc2c(NC3CCCCC3)c(C(=O)NCc3ccncc3)cnc21` [Example 32, 4-(Cyolohexylamino)-1-ethyl-N-(pyridin-4-ylmethyl)-1H-pyrazolo[3,4-b]pyridine-5-carboxamide], the IC50 was 20 nM.

`CCn1ncc2c(NC3CCOCC3)c(C(N)=O)cnc21` [Example 36, 1-Ethyl-4-(tetrahydro-2H-pyran-4-ylamino)-1H-pyrazolo[3,4-b]pyridine-5-carboxamide]: the IC50 was 12.6 to 100 nM.

Regarding `CCn1ncc2c(NC3CCCC3)c(C(=O)NCc3ccccc3)cnc21` [Example 39, N-Benzyl-4-(cyclopentylamino)-1-ethyl-1H-pyrazolo[3,4-b]pyridine-5-carboxamide], the IC50 is 12.6 to 100 nM.

Turning to `CCn1ncc2c(NC3CCCCC3)c(C(=O)NCc3ccccc3)cnc21` [Example 40, N-Benzyl-4-(cyclohexylamino)-1-ethyl-1H-pyrazolo[3,4-b]pyridine-5-carboxamide], the IC50 was 5.01 nM.

Regarding `CCn1ncc2c(NC3CCN(C(C)=O)CC3)c(C(=O)NCc3ccccc3)cnc21` [Example 41, 4-[(1-Acetylpiperidin-4-yl)amino]-N-benzyl-1-ethyl-1H-pyrazolo[3,4-b]pyridine-5-carboxamide], the IC50 is 12.6 to 100 nM.

On to `CCC(CC)CNC(=O)c1cnc2c(cnn2CC)c1NC1CCCC1` [Example 42, 4-(Cyclopentylamino)-1-ethyl-N-(2-ethylbutyl)-1H-pyrazolo[3,4-b]pyridine-5-carboxamide], for which the IC50 is 12.6 to 100 nM.

Consider `CCC(CC)CNC(=O)c1cnc2c(cnn2CC)c1NC1CCCCC1` [Example 43, 4-(Cyclohexylamino)-1-ethyl-N-(2-ethylbutyl)-1H-pyrazolo[3,4-b]pyridine-5-carboxamide], for which the IC50 is 12.6 to 100 nM.

With `CCC(CC)CNC(=O)c1cnc2c(cnn2CC)c1NC1CCOCC1` [Example 44, 1-Ethyl-N-(2-ethylbutyl)-4-(tetrahydro-2H-pyran-4-ylamino)-1H-pyrazolo[3,4-b]pyridine-5-carboxamide], the IC50 is 12.6 to 100 nM.

As to `CCn1ncc2c(NC3CCCC3)c(C(=O)Nc3ccc(F)cc3)cnc21` [Example 47, 4-(Cyclopentylamino)-1-ethyl-N-(4-fluorophenyl)-1H-pyrazolo[3,4-b]pyridine-5-carboxamide], the IC50 was 12.6 to 100 nM.

Regarding `CCn1ncc2c(NC3CCCCC3)c(C(=O)Nc3ccc(F)cc3)cnc21` [Example 48, 4-(Cyclohexylamino)-1-ethyl-N-(4-fluorophenyl)-1H-pyrazolo[3,4-b]pyridine-5-carboxamide], the IC50 was 12.6 to 100 nM.

Consider `Cn1ncc2c(NC3CCOCC3)c(C(=O)NCc3ccccc3)cnc21` [Example 63, N-Benzyl-1-methyl-4-(tetrahydro-2H-pyran-4-ylamino)-1H-pyrazolo[3,4-b]pyridine-5-carboxamide], for which the IC50 is 126 nM.

For the compound `CCn1ncc2c(NC3CCOCC3)c(C(=O)NCc3ccc(S(C)(=O)=O)cc3)cnc21` [Example 100, 1-Ethyl-N-[4-(methylsulfonyl)benzyl]-4-(tetrahydro-2H-pyran-4-ylamino)-1H-pyrazolo[3,4-b]pyridine-5-carboxamide], the IC50 is 0.1 to 6.31 nM.

As for `CCn1ncc2c(NC3CCOCC3)c(C(=O)NCc3nccs3)cnc21` [Example 109, 1-Ethyl-4-(tetrahydro-2H-pyran-4-ylamino)-N-(1,3-thiazol-2-ylmethyl)-1H-pyrazolo[3,4-b]pyridine-5-carboxamide], the IC50 is 12.6 to 100 nM.

With `CCn1ncc2c(NC3CCOCC3)c(C(=O)NC3Cc4ccccc4C3)cnc21` [Example 165, N-(2,3-Dihydro-1H-inden-2-yl)-1-ethyl-4-(tetrahydro-2H-pyran-4-ylamino)-1H-pyrazolo[3,4-b]pyridine-5-carboxamide], the IC50 was 0.1 to 6.31 nM.

`CCn1ncc2c(NC3CCOCC3)c(C(=O)NCc3ccc(OC)c(OC)c3)cnc21` [Example 167, N-(3,4-Dimethoxybenzyl)-1-ethyl-4-(tetrahydro-2H-pyran-4-ylamino)-1H-pyrazolo[3,4-b)pyridine-5-carboxamide]: the IC50 is 0.1 to 6.31 nM.

As for `CCn1ncc2c(NC3CCOCC3)c(C(=O)NCc3cnn(C)c3)cnc21` [Example 178, 1-Ethyl-N-[(1-methyl-1H-pyrazo1-4-yl)methyl]-4-(tetrahydro-2H-pyran-4-ylamino)-1H-pyrazolo[3,4-b]pyridine-5-carboxamide], the IC50 was 12.6 to 100 nM.

On to `CCCn1ncc2c(NC3CCOCC3)c(C(=O)NCc3ccc(S(C)(=O)=O)cc3)cnc21` [Example 187, N-[4-(Methylsulfonyl)benzyl]-1-n-propyl-4-(tetrahydro-2H-pyran-4-ylamino)-1H-pyrazolo[3,4-b]pyridine-5-carboxamide], for which the IC50 is 12.6 to 100 nM.

As for `CCn1ncc2c(NC3CCOCC3)c(C(=O)NCc3ccccc3)c(C)nc21` [Example 196, N-Benzyl-1-ethyl-6-methyl-4-(tetrahydro-2H-pyran-4-ylamino)-1H-pyrazolo[3,4-b]pyridine-5-carboxamide], the IC50 is 12.6 nM.

Consider `CCn1ncc2c(NC3CCCC(O)C3)c(C(=O)NCc3ccccc3)cnc21` (centres unmarked) [Example 198, N-Benzyl-1-ethyl-4-[(3-hydroxycyclohexyl)amino]-1H-pyrazolo[3,4-b]pyridine-5-carboxamide], for which the IC50 is 3.16 nM.

Take `CCn1ncc2c(NC3CCC(=O)CC3)c(C(=O)NCc3ccccc3)cnc21` [Example 201, N-Benzyl-1-ethyl-4-[(4-oxocyclohexyl)amino]-1H-pyrazolo[3,4-b]pyridine-5-carboxamide]: the IC50 was 0.1 to 6.31 nM.

Take `CCn1ncc2c(NC3CCC(=O)CC3)c(C(=O)NCc3ccc(C)cc3C)cnc21` [Example 260, N-[(2,4-dimethylphenyl)methyl]-1-ethyl-4-[(4-oxocyclohexyl)amino]-1H-pyrazolo[3,4-b]pyridine-5-carboxamide]: the IC50 was 0.1 to 6.31 nM.

As for `CCn1ncc2c(NC3CCC(=O)CC3)c(C(=O)NCc3ccc(C)c(C)c3)cnc21` [Example 261, N-[(3,4-Dimethylphenyl)methyl]-1-ethyl-4-[(4-oxocyclohexyl)amino]-1H-pyrazolo[3,4-b]pyridine-5-carboxamide], the IC50 is 0.1 to 6.31 nM.

For the compound `CCn1ncc2c(NC3CCC(=O)CC3)c(C(=O)NCc3ccc(OC)cc3)cnc21` [Example 263], the IC50 is 0.1 to 6.31 nM.

As for `CCn1ncc2c(NC3CCC(=O)CC3)c(C(=O)NCc3ccc(N(C)C)cc3)cnc21` [Example 265, N-{[4-(Dimethylamino)phenyl]methyl}-1-ethyl-4-[(4-oxocyclohexyl)amino]-1H-pyrazolo[3,4-b]pyridine-5-carboxamide], the IC50 is 0.1 to 6.31 nM.

The values are drawn from patent US20060089375A1, “Pyrazolo[3,4-b] pyridine compounds, and their use as phosphodiesterase inhibitors” (priority 2002, published 2006).
